Measured values as given in patent publication US20040029254A1, “Method of screening anti-bacterial agents for effectiveness in treating persistant intracellular infections” (University of Washington, priority 2002, published 2004).
Values after ≈ are worked out from the molar mass of the structure shown.

What was measured:
Type in all cases: cell-based
[1] = system: clinical isolates of C. trachomatis; test: microbe, parasite or virus in culture
[2] = system: C. trachomatis MoPn (mouse pneumonitis strain); test: Anti-bacterial susceptibilities of reference strains
[3] = system: C. suis R-19 (porcine strain); conditions: McCoy cells; for MCC (microtiter): one freeze-thaw passage in microtiter plates; for MCC1 (shell vial): one passage in shell vials; for MIC (microtiter): tetracycline-resistant strain; for MCC3 (shell vial): three passages in shell vials
[4] = system: C. trachomatis L2 (LGV serovar); test: Anti-bacterial susceptibilities of reference strains
[5] = system: C. trachomatis B,D,E,F,G,H,I,Ia,J,K (human genital serovars); test: as above

C[C@H]1c2cccc(O)c2C(=O)C2=C(O)[C@]3(O)C(=O)C(C(N)=O)=C(O)[C@@H](N(C)C)[C@@H]3[C@@H](O)[C@@H]21 [Doxycycline, doxycycline]
MCC1 [1]: 4 to 8 µg/mL | MCC3 [1]: 32 to 64 µg/mL | MCC1 (shell vial) [2]: >8 µg/mL | MCC3 (shell vial) [2]: 64 µg/mL | MCC (microtiter) [2]: 0.5 µg/mL | MCC (microtiter) [3]: 2.0 µg/mL | MCC1 (shell vial) [3]: >8 µg/mL | MIC (microtiter) [3]: 1.0 µg/mL (≈ 2.25 µM) | MCC3 (shell vial) [3]: >128 µg/mL | MCC1 (shell vial) [4]: >8 µg/mL | MCC3 (shell vial) [4]: 32 µg/mL | MCC (microtiter) [4]: 0.125 µg/mL | MCC1 (shell vial) [5]: >8 µg/mL | MCC3 (shell vial) [5]: 16 to 32 µg/mL | MCC (microtiter) [5]: 0.125 µg/mL

CCCN1CCN(c2cc(O)c3nc4c5c6c7c(C)c(O)c5c(=O)c(c-4oc3c2)NC(=O)/C(C)=C\C=C\[C@H](C)[C@H](O)[C@@H](C)[C@@H](O)[C@@H](C)[C@H](OC(C)=O)[C@H](C)[C@@H](OC)/C=C/O[C@@](C)(O7)C6=O)CC1 [KRM-1657]
MCC1 [1]: 0.0005 to 0.001 µg/mL | MCC3 [1]: 0.001 to 0.002 µg/mL

CC1COc2c(N3CCN(C)CC3)c(F)cc3c(=O)c(C(=O)O)cn1c23 (stereo not drawn) [Ofloxacin, ofloxacin]
MCC1 [1]: 8 to 16 µg/mL | MCC3 [1]: >128 µg/mL | MCC1 (shell vial) [2]: >8 µg/mL | MCC3 (shell vial) [2]: >128 µg/mL | MCC (microtiter) [2]: 1.0 µg/mL | MCC (microtiter) [3]: 1.0 µg/mL | MCC1 (shell vial) [3]: >8 µg/mL | MIC (microtiter) [3]: 0.5 µg/mL (≈ 1.38 µM) | MCC3 (shell vial) [3]: >128 µg/mL | MCC1 (shell vial) [4]: >8 µg/mL | MCC3 (shell vial) [4]: >128 µg/mL | MCC (microtiter) [4]: 1.0 µg/mL | MCC1 (shell vial) [5]: >8 µg/mL | MCC3 (shell vial) [5]: >128 µg/mL | MCC (microtiter) [5]: 1.0 µg/mL

CO[C@H]1/C=C/O[C@@]2(C)Oc3c(C)c(O)c4c(=O)c(c5oc6cc(N7CCN(CC(C)C)CC7)cc(O)c6nc-5c4c3C2=O)NC(=O)/C(C)=C\C=C\[C@H](C)[C@H](O)[C@@H](C)[C@@H](O)[C@@H](C)[C@H](OC(C)=O)[C@@H]1C [Rifalazil, rifalazil]
MCC1 [1]: 0.001 to 0.002 µg/mL | MCC3 [1]: 0.004 to 0.008 µg/mL

CC[C@H]1OC(=O)[C@H](C)[C@@H](O[C@H]2C[C@@](C)(OC)[C@@H](O)[C@H](C)O2)[C@H](C)[C@@H](O[C@@H]2O[C@H](C)C[C@H](N(C)C)[C@H]2O)[C@](C)(O)C[C@@H](C)CN(C)[C@H](C)[C@@H](O)[C@]1(C)O [Azithromycin, azithromycin]
MCC1 [1]: 4 to 8 µg/mL | MCC3 [1]: 32 to 64 µg/mL | MCC1 (shell vial) [2]: >8 µg/mL | MCC3 (shell vial) [2]: 128 µg/mL | MCC (microtiter) [2]: 0.5 µg/mL | MCC (microtiter) [3]: 0.25 µg/mL | MCC1 (shell vial) [3]: >8 µg/mL | MCC3 (shell vial) [3]: >128 µg/mL | MCC1 (shell vial) [4]: >8 µg/mL | MCC3 (shell vial) [4]: 64 µg/mL | MCC (microtiter) [4]: 0.25 µg/mL | MCC1 (shell vial) [5]: >8 µg/mL | MCC3 (shell vial) [5]: 64 µg/mL | MCC (microtiter) [5]: 0.25 µg/mL
